Results on 11 molecules are retold here after publication PMC7935272 (PLoS Pathogens, 2021).

Like-named read-outs stand apart in the source and are kept apart here.

The conditions of data set [1]: cited from earlier work.
Data set [2] relates to MeV. The conditions noted are these: cited from earlier work; for IC50: Figure 7A source data; for EC50: experimental activity, read-out: EC50.
The test system of data set [3] is MeV. In words: Cell-based anti-MeV assays of earlier work.
Where [4] appears, read: −log10(EC50) of literature EC50.

One may read the IC50 as the concentration needed to halve the response being measured. Broadly, the EC50 is the concentration needed to bring the measured effect to its halfway point. Take `CC1CCCCN1S(=O)(=O)c1ccc(NC(=O)c2cc(C(F)(F)F)cn2C)cc1` (stereo not shown) [15b, S(=O)(=O)(N1C(C)CCCC1)c1ccc(NC(=O)c2n(C)cc(C(F)(F)F)c2)cc1]: in data set [1], the CC50 was over 300 µM. For the same molecule, the IC50 in data set [2] is 28.9 nM; in data set [3] (Figure 7A source data), 29 nM; in data set [3] (setting [4]), 29 nM. Moreover, the EC50 in data set [2] is 28 nM.
Regarding `CC1CCN(S(=O)(=O)c2ccc(NC(=O)c3cc(C(F)(F)F)cn3C)cc2)CC1` [15c, S(=O)(=O)(N1CCC(C)CC1)c1ccc(NC(=O)c2n(C)cc(C(F)(F)F)c2)cc1], the CC50 in data set [1] is over 300 µM. The figures for the IC50 in data set [2], in data set [3] (Figure 7A source data) and in data set [3] (setting [4]) were 35 nM, 35 nM and 35.1 nM, respectively. The EC50 in data set [2] is 35 nM.
With `CC1CCCC(C)N1S(=O)(=O)c1ccc(NC(=O)c2cc(C(F)(F)F)cn2C)cc1` (stereo not shown) [15d, S(=O)(=O)(N1C(C)CCCC1C)c1ccc(NC(=O)c2n(C)cc(C(F)(F)F)c2)cc1], in data set [1], the CC50 is over 300 µM. In addition, the IC50 in data set [2], in data set [3] (Figure 7A source data) and in data set [3] (setting [4]) was 14 nM throughout. For the same molecule, in data set [2], the EC50 is 14 nM.
With `CCC1CCCCN1S(=O)(=O)c1ccc(NC(=O)c2cc(C(F)(F)F)cn2C)cc1` (stereo not shown) [15e, S(=O)(=O)(N1C(CC)CCCC1)c1ccc(NC(=O)c2n(C)cc(C(F)(F)F)c2)cc1], in data set [1], the CC50 was over 300 µM. For the same molecule, the figures for the IC50 in data set [2], in data set [3] (Figure 7A source data) and in data set [3] (setting [4]) were 86.9 nM, 87 nM and 87.1 nM, respectively. The EC50 in data set [2] is 86 nM.
For `Cn1cc(C(F)(F)F)cc1C(=O)Nc1ccc(S(=O)(=O)N2CCCCCC2)cc1` [15f, S(=O)(=O)(N1CCCCCC1)c1ccc(NC(=O)c2n(C)cc(C(F)(F)F)c2)cc1], the CC50 in data set [1] is over 300 µM. Also, the IC50 in data set [2], in data set [3] (Figure 7A source data) and in data set [3] (setting [4]) was 5 nM throughout. For the same molecule, the EC50 in data set [2] was 5 nM.
On to `Cn1cc(C(F)(F)F)cc1C(=O)Nc1ccc(S(=O)(=O)N2CCCCCCC2)cc1` [15g, S(=O)(=O)(N1CCCCCCC1)c1ccc(NC(=O)c2n(C)cc(C(F)(F)F)c2)cc1], for which the CC50 in data set [1] was over 300 µM. The figures for the IC50 in data set [2], in data set [3] (Figure 7A source data) and in data set [3] (setting [4]) were 45 nM, 45 nM and 45.1 nM, respectively. Further, the EC50 in data set [2] was 45 nM.
For the molecule `Cn1cc(C(F)(F)F)cc1C(=O)Nc1ccc(S(=O)(=O)N2CCC[C@@H]2C(=O)OC(=O)c2ccccc2)cc1` [15h, S(=O)(=O)(N1[C@@H](C(=O)OC(=O)c2ccccc2)CCC1)c1ccc(NC(=O)c2n(C)cc(C(F)(F)F)c2)cc1], the CC50 in data set [1] was over 100 µM. Besides, the IC50 in data set [2], in data set [3] (Figure 7A source data) and in data set [3] (setting [4]) was 14000 nM in each case. For the same molecule, in data set [2], the EC50 was 14000 nM.
Regarding `Cn1cc(C(F)(F)F)cc1C(=O)Nc1ccc(S(=O)(=O)N2CCCC2C(=O)O)cc1` (stereo not shown) [15i, S(=O)(=O)(N1C(C(=O)O)CCC1)c1ccc(NC(=O)c2n(C)cc(C(F)(F)F)c2)cc1], in data set [1], the CC50 is over 300 µM. The IC50 in data set [2], in data set [3] (Figure 7A source data) and in data set [3] (setting [4]) was 23000 nM each time. Also, the EC50 in data set [2] is 23000 nM.
On to `Cn1cc(C(F)(F)F)cc1C(=O)Nc1ccc(S(=O)(=O)N2CCC(C(F)(F)F)CC2)cc1` [15k, S(=O)(=O)(N1CCC(C(F)(F)F)CC1)c1ccc(NC(=O)c2n(C)cc(C(F)(F)F)c2)cc1], for which, in data set [1], the CC50 was 159 µM. For the same molecule, the IC50 in data set [2], in data set [3] (Figure 7A source data) and in data set [3] (setting [4]) was 20 nM throughout. For the same molecule, the EC50 in data set [2] was 20 nM.
On to `CN(C)S(=O)(=O)c1ccc(NC(=O)c2cc(C(F)(F)F)cn2C)cc1` [15m, S(=O)(=O)(N(C)C)c1ccc(NC(=O)c2n(C)cc(C(F)(F)F)c2)cc1], for which, in data set [1], the CC50 is over 300 µM. Also, the values for the IC50 in data set [2], in data set [3] (Figure 7A source data) and in data set [3] (setting [4]) were 6300 nM, 6300 nM and 6310 nM, respectively. The EC50 in data set [2] was 6300 nM.
`CCN(CC)S(=O)(=O)c1ccc(NC(=O)c2cc(C(F)(F)F)cn2C)cc1` [15n, S(=O)(=O)(N(CC)CC)c1ccc(NC(=O)c2n(C)cc(C(F)(F)F)c2)cc1]: the CC50 in data set [1] is over 300 µM. Also, the IC50 in data set [2] was 18.9 nM; in data set [3] (Figure 7A source data), 19 nM; in data set [3] (setting [4]), 19 nM. Further, the EC50 in data set [2] is 18 nM.
